The target in test [1] is GSK3α (GST-full length GSK3α) (Homo sapiens (Human), UniProt P49840). Briefly: GSK3α TR-FRET kinase assay. It is filed as biochemical. The gist of the method: (§1)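 Readout: anti-pSer641 Tb antibody/streptavidin-d2 signal after 60 min, expressed as 665/615 ratio and fitted versus log concentration for IC50. Enzyme: 1 nM GST-GSK3 (α or β), compound-preincubated 30 min. Conditions: pH 7.5 Tris buffer with MgCl2, DTT, BSA; ATP at 4 or 2 μM, or 1 mM; 100 min.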
(TR-FRET usually uses a lanthanide donor and a delayed reading to cut background.)

Test [2] has as its target GSK3b (GST-full length GSK3b) (Homo sapiens (Human), UniProt P49841). Briefly: GSK3b TR-FRET kinase assay. The class given is biochemical. Put shortly:
as §1

Setting [3] is: 1 nM GSK3α, 4 μM ATP, 30 minute preincubation, Table 16, read-out: GSK3-A TR-FRET BIOCHEMICAL (TR-FRET), IC50.
[4] abbreviates: read-out: GSK3-A (TR-FRET 1 mM ATP), GMean, IC50, 1 mM ATP, geometric mean.
Setting [5] is: 1 nM GSK3b, 2 μM ATP, 30 minute preincubation, Table 16, read-out: GSK3-B TR-FRET BIOCHEMICAL (TR-FRET), IC50.
The mark [6] stands for this setting: read-out: GSK3-B (TR-FRET 1 mM ATP), GMean, IC50, 1 mM ATP, geometric mean.
Setting [7] is: 1 nM GSK3α, 4 μM ATP, 30 minute preincubation, Table 16, read-out: GSK3-A TR-FRET BIOCHEMICAL (TR-FRET).
[8] abbreviates: 1 nM GSK3b, 2 μM ATP, 30 minute preincubation, Table 16, read-out: GSK3-B TR-FRET BIOCHEMICAL (TR-FRET).
The mark [9] stands for this setting: 1 nM GSK3α, 4 μM ATP, 30 minute preincubation, read-out: GSK3-A TR-FRET BIOCHEMICAL (TR-FRET), IC50.
[10] abbreviates: 1 nM GSK3b, 2 μM ATP, 30 minute preincubation, read-out: GSK3-B TR-FRET BIOCHEMICAL (TR-FRET), IC50.

Structures are written as SMILES. Where two headings read alike, the source gives them in different places.

Sequence of GSK3α (GST-full length GSK3α) (P49840 whole entry): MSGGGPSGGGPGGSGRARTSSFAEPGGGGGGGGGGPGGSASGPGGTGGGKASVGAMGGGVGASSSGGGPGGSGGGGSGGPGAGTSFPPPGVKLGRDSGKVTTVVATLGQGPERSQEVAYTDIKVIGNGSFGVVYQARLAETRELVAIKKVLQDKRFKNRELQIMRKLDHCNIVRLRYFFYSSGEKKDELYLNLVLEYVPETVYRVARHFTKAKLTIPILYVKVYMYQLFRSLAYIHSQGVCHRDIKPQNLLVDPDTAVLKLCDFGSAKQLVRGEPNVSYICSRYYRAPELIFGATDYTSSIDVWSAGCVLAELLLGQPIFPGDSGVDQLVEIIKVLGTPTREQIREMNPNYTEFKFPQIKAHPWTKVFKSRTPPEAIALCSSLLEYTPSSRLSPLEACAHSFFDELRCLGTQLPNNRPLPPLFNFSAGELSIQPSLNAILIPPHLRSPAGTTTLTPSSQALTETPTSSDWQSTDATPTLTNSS
Sequence of GSK3b (GST-full length GSK3b) (P49841 whole entry): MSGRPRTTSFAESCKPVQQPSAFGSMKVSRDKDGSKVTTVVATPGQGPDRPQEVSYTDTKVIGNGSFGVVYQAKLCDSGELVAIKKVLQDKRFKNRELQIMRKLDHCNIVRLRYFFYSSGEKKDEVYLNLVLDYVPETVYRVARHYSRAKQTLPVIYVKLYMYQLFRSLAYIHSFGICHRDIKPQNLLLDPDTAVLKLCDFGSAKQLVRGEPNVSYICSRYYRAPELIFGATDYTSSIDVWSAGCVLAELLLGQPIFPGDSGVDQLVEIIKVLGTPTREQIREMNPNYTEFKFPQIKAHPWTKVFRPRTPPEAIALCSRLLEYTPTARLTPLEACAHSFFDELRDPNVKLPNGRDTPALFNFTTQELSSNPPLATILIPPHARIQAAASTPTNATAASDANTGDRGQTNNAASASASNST

Take `CCC1(c2cccc(N3CCCC3)c2)C2=C(CC(C)(C)CC2=O)Nc2n[nH]c(C)c21` (centres unmarked) [Compound 883874]: the IC50 in test [1] (setting [3]) is at most 0.1 µM; in test [1] (setting [4]), at most 0.1 µM; in test [2] (setting [5]) it was at most 0.1 µM; in test [2] (setting [6]), 0.1 to 1 µM.

Consider `CC[C@]1(c2cccc(N3CCCC3)c2)C2=C(CC(C)(C)CC2=O)Nc2n[nH]c(C)c21` [Compound 883875], for which the IC50 in test [1] (setting [3]) fell in the range of 0.1 to 1 µM; in test [2] (setting [5]) it was 1 to 5 µM.

Consider `CC1(C)CC(=O)C2=C(C1)Nc1n[nH]cc1C21CCN(CC(F)F)CC1` [Compound 883962], for which the IC50 in test [1] (setting [7]) and in test [2] (setting [8]) was 0.1 to 1 µM throughout.

For the compound `CC1(C)CC(=O)C2=C(C1)Nc1n[nH]cc1C21CCC(F)(F)CC1` [Compound 883972], the values for the IC50 in test [1] (setting [7]) and in test [2] (setting [8]) were at most 0.1 µM and 0.1 to 1 µM, respectively.

With `CC1(C)CC(=O)C2=C(C1)Nc1n[nH]cc1C21CCSC1` (centres unmarked) [Compound 883973], the IC50 was at most 0.1 µM in test [1] (setting [7]) and 0.1 to 1 µM in test [2] (setting [8]).

With `CC1(C)CC(=O)C2=C(C1)Nc1n[nH]cc1C21CCC2(CC1)COC2` [Compound 883977], the IC50 in test [1] (setting [9]) is at most 0.1 µM; in test [2] (setting [10]), 0.1 to 1 µM.

In the case of `CC1(C)CC(=O)C2=C(C1)Nc1n[nH]cc1C21CCCCCC1` [Compound 883978], the IC50 in test [1] (setting [7]) and in test [2] (setting [8]) was 0.1 to 1 µM each time.

For the compound `CC[C@@]1(c2cccc(C(F)(F)F)c2)C2=C(Nc3n[nH]cc31)[C@H](C)CN(C)C2=O` [Compound 883980], the IC50 was at most 0.1 µM in test [1] (setting [9]), 0.1 to 1 µM in test [1] (setting [4]), at most 0.1 µM in test [2] (setting [10]) and 1 to 5 µM in test [2] (setting [6]).

As to `CC[C@]1(c2cccc(C(F)(F)F)c2)C2=C(Nc3n[nH]cc31)[C@@H](C)CN(C)C2=O` [Compound 883981], the IC50 in test [1] (setting [9]) and in test [2] (setting [10]) was above 5 µM in each case.

Take `CC[C@]1(c2cccc(C(F)(F)F)c2)C2=C(Nc3n[nH]cc31)[C@H](C)CN(C)C2=O` [Compound 883982]: the IC50 in test [1] (setting [9]) and in test [2] (setting [10]) was above 5 µM each time.

For the compound `CCC1(c2cccc(-c3ccncc3)c2)C2=C(CC(C)(C)CC2=O)Nc2n[nH]cc21` (centres unmarked) [Compound 883984], the IC50 in test [1] (setting [3]) and in test [2] (setting [5]) was at most 0.1 µM in each case.

In the case of `CCC1(c2cccc(-c3ccncc3F)c2)C2=C(CC(C)(C)CC2=O)Nc2n[nH]cc21` (centres unmarked) [Compound 883986], the IC50 in test [1] (setting [3]) and in test [2] (setting [5]) was at most 0.1 µM throughout.

For the compound `CCC1(c2cccc(-c3ccnc(C)c3)c2)C2=C(CC(C)(C)CC2=O)Nc2n[nH]c(C)c21` (centres unmarked) [Compound 883987], the IC50 in test [1] (setting [3]) is at most 0.1 µM; in test [2] (setting [5]) it was 0.1 to 1 µM.

Take `CCC1(c2cccc(-c3ccnc(C(F)(F)F)c3)c2)C2=C(CC(C)(C)CC2=O)Nc2n[nH]c(C)c21` (centres unmarked) [Compound 883989]: the figures for the IC50 in test [1] (setting [3]) and in test [2] (setting [5]) were at most 0.1 µM and 0.1 to 1 µM, respectively.

Consider `CCC1(c2cccc(-c3ccnc(N(C)C)c3)c2)C2=C(CC(C)(C)CC2=O)Nc2n[nH]c(C)c21` (centres unmarked) [Compound 883990], for which the IC50 in test [1] (setting [3]) is at most 0.1 µM; in test [2] (setting [5]) it was 0.1 to 1 µM.

In the case of `CCC1(c2cccc(-c3ccncc3C)c2)C2=C(CC(C)(C)CC2=O)Nc2n[nH]c(C)c21` (centres unmarked) [Compound 883991], the IC50 in test [1] (setting [3]) and in test [2] (setting [5]) was at most 0.1 µM each time.

As for `CCC1(c2cccc(-c3ccnn3C)c2)C2=C(CC(C)(C)CC2=O)Nc2n[nH]c(C)c21` (centres unmarked) [Compound 883992], the IC50 in test [1] (setting [3]) and in test [2] (setting [5]) was at most 0.1 µM throughout.

For the compound `CCC1(c2cccc(-c3cnn(C)c3C)c2)C2=C(CC(C)(C)CC2=O)Nc2n[nH]c(C)c21` (centres unmarked) [Compound 883993], the IC50 in test [1] (setting [3]) and in test [2] (setting [5]) was at most 0.1 µM in each case.

Take `CCC1(c2cccc(-c3cn[nH]c3)c2)C2=C(CC(C)(C)CC2=O)Nc2n[nH]c(C)c21` (centres unmarked) [Compound 883994]: the IC50 in test [1] (setting [3]) and in test [2] (setting [5]) was at most 0.1 µM throughout.

Regarding `CCC1(c2cccc(-c3c(C)nn(C)c3C)c2)C2=C(CC(C)(C)CC2=O)Nc2n[nH]c(C)c21` (centres unmarked) [Compound 883995], the IC50 in test [1] (setting [3]) and in test [2] (setting [5]) was at most 0.1 µM throughout.

For `CCC1(c2cccc(-c3cnn(CCOC)c3)c2)C2=C(CC(C)(C)CC2=O)Nc2n[nH]c(C)c21` (centres unmarked) [Compound 883996], the IC50 in test [1] (setting [3]) is at most 0.1 µM; in test [2] (setting [5]) it was 0.1 to 1 µM.

Regarding `CCC1(c2cccc(-c3ccn(C)n3)c2)C2=C(CC(C)(C)CC2=O)Nc2n[nH]c(C)c21` (centres unmarked) [Compound 883999], the IC50 in test [1] (setting [3]) and in test [2] (setting [5]) was at most 0.1 µM each time.

In the case of `CCC1(c2cccc(-c3cncn3C)c2)C2=C(CC(C)(C)CC2=O)Nc2n[nH]c(C)c21` (centres unmarked) [Compound 884001], the IC50 in test [1] (setting [3]) and in test [2] (setting [5]) was at most 0.1 µM in each case.

With `CCC1(c2cccc(-c3cnn4c3CCCC4)c2)C2=C(CC(C)(C)CC2=O)Nc2n[nH]c(C)c21` (centres unmarked) [Compound 884002], the IC50 in test [1] (setting [3]) and in test [2] (setting [5]) was at most 0.1 µM each time.

For `CCC1(c2cccc(-c3cn(C)nc3C)c2)C2=C(CC(C)(C)CC2=O)Nc2n[nH]c(C)c21` (centres unmarked) [Compound 884003], the IC50 in test [1] (setting [3]) and in test [2] (setting [5]) was at most 0.1 µM in each case.

For the compound `CC1(C)CC(=O)C2=C(C1)Nc1n[nH]cc1[C@]21C[C@@H](n2cccn2)C1` [Compound 884004], the IC50 in test [1] (setting [7]) and in test [2] (setting [8]) was at most 0.1 µM throughout.

As to `CC1(C)CC(=O)C2=C(C1)Nc1n[nH]cc1[C@]21C[C@H](n2cccn2)C1` [Compound 884005], the IC50 in test [1] (setting [7]) and in test [2] (setting [8]) was at most 0.1 µM throughout.

On to `CC(C)[C@@H]1C[C@@]2(CCO1)C1=C(CC(C)(C)CC1=O)Nc1n[nH]cc12` [Compound 884013], for which the values for the IC50 in test [1] (setting [3]) and in test [2] (setting [5]) were 1 to 5 µM and above 5 µM, respectively.

In the case of `CC(C)[C@H]1C[C@]2(CCO1)C1=C(CC(C)(C)CC1=O)Nc1n[nH]cc12` [Compound 884014], the IC50 in test [1] (setting [3]) was 1 to 5 µM; in test [2] (setting [5]), above 5 µM.

As for `CC[C@]1(C)C2=C(CC(C)(C)CC2=O)Nc2n[nH]cc21` [Compound 884019], the IC50 was 0.1 to 1 µM in test [1] (setting [3]) and 1 to 5 µM in test [2] (setting [5]).

Take `CC[C@]1(C)C2=C(CC(C)(C)CC2=O)Nc2n[nH]cc21` [Compound 884020]: the IC50 in test [1] (setting [3]) and in test [2] (setting [5]) was above 5 µM throughout.

On to `CC1(C)CC(=O)C2=C(C1)Nc1n[nH]cc1[C@]21CCO[C@@H](C(F)(F)F)C1` [Compound 884021], for which the IC50 in test [1] (setting [7]) and in test [2] (setting [8]) was 0.1 to 1 µM throughout.

On to `CC1(C)CC(=O)C2=C(C1)Nc1n[nH]cc1[C@@]21CCO[C@H](C(F)(F)F)C1` [Compound 884022], for which the IC50 in test [1] (setting [7]) and in test [2] (setting [8]) was 0.1 to 1 µM in each case.

Regarding `CC1(C)CC(=O)C2=C(C1)Nc1n[nH]cc1[C@]21CCO[C@H](C(F)(F)F)C1` [Compound 884023], the IC50 in test [1] (setting [3]) is 1 to 5 µM; in test [2] (setting [5]), above 5 µM.

With `CC1(C)CC(=O)C2=C(C1)Nc1n[nH]cc1[C@@]21CCO[C@@H](C(F)(F)F)C1` [Compound 884024], the IC50 in test [1] (setting [3]) was 1 to 5 µM; in test [2] (setting [5]) it was above 5 µM.

With `CC1(C)CCC2(CC1)C1=C(CC(C)(C)CC1=O)Nc1n[nH]cc12` [Compound 884107], the IC50 in test [1] (setting [7]) is at most 0.1 µM; in test [2] (setting [8]) it was 0.1 to 1 µM.

On to `CCN(C(C)=O)c1cccc(C2(CC)C3=C(CC(C)(C)CC3=O)Nc3n[nH]cc32)c1` (centres unmarked) [Compound 884109], for which the IC50 in test [1] (setting [3]) and in test [2] (setting [5]) was at most 0.1 µM throughout.

Consider `CCC1(c2cccc(N(Cc3ccccc3)C(C)=O)c2)C2=C(CC(C)(C)CC2=O)Nc2n[nH]cc21` (centres unmarked) [Compound 884110], for which the IC50 in test [1] (setting [3]) and in test [2] (setting [5]) was at most 0.1 µM throughout.
